These results are taken from ChEMBL document CHEMBL1811912, “Human HDAC isoform selectivity achieved via exploitation of the acetate release channel with structurally unique small molecule inhibitors” (Bioorg Med Chem, 2011).

Assay [1] concerns the target Histone deacetylase 2 (Homo sapiens, UniProt Q92769). Kind of assay: Inhibition of human HDAC2 using rhodamine as substrate after 1 hrs by fluorescence assay.
Assay [2] has as its target T1, Protein deacetylase HDAC6 (Homo sapiens, UniProt Q9UBN7).
T1 sequence (Q9UBN7 whole entry): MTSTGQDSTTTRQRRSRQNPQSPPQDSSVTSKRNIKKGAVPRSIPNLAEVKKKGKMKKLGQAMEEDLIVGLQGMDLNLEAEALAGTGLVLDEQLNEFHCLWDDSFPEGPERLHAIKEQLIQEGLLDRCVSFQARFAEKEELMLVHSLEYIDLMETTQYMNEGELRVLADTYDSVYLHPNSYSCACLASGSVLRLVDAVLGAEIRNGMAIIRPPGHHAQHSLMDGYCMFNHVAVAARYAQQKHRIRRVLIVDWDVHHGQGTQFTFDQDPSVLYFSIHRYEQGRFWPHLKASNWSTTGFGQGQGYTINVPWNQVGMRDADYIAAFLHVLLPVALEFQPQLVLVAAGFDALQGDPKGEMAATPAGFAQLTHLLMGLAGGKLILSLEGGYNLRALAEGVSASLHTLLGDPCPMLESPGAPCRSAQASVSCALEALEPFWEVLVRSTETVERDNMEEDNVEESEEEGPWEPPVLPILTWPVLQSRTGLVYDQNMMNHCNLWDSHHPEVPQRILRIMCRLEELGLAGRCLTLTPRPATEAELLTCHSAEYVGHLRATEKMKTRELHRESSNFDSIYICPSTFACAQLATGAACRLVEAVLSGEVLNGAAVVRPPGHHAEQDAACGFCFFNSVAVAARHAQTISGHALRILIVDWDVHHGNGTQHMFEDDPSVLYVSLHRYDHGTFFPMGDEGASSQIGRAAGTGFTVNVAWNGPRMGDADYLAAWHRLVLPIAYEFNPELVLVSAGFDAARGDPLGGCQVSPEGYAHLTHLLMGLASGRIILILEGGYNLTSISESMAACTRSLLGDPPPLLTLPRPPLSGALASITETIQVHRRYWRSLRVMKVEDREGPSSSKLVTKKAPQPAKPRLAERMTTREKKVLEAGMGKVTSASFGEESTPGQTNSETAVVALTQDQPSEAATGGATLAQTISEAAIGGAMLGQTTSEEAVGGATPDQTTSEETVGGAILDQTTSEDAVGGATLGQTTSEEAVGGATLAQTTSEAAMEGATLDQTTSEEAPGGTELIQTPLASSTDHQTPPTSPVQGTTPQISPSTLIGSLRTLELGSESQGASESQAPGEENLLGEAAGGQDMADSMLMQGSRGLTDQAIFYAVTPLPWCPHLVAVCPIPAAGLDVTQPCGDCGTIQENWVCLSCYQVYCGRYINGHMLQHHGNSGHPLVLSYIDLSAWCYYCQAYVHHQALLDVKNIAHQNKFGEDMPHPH
Kind of assay: Inhibition of human HDAC6 using rhodamine as substrate after 1 hrs by fluorescence assay.

The target of assay [3] is Histone deacetylase 1 (Homo sapiens, UniProt Q13547). Kind of assay: Inhibition of human HDAC1 using rhodamine as substrate after 1 hrs by fluorescence assay.
Sequence of Histone deacetylase 1 (Q13547 whole entry): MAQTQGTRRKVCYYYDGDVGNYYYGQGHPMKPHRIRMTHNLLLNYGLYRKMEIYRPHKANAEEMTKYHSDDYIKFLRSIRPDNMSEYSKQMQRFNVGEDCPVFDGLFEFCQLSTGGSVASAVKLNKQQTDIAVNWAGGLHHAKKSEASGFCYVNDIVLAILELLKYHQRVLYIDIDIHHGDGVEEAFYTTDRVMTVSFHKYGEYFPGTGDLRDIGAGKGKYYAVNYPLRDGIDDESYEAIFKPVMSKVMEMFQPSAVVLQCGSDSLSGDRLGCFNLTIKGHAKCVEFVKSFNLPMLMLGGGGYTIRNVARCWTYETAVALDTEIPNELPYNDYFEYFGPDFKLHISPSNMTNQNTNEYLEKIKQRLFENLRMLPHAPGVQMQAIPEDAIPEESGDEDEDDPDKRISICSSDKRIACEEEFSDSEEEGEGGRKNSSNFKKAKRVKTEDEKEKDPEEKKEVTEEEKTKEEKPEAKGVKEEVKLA

Sequence of Histone deacetylase 2 (Q92769 whole entry): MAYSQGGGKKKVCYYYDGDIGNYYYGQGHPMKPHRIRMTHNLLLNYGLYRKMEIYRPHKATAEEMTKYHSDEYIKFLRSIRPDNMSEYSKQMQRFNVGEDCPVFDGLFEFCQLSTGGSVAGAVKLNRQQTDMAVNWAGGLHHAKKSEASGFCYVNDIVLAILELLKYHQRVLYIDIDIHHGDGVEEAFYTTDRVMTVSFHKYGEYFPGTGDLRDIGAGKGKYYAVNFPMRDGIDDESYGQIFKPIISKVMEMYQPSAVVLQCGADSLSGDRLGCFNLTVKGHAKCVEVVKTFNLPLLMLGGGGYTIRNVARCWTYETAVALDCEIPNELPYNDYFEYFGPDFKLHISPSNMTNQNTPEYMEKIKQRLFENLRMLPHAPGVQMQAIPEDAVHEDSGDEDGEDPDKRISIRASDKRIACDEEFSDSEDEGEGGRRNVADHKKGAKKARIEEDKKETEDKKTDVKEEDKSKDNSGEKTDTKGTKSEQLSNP

For the compound `N[C@H](Cc1ccc(Cl)cc1Cl)C(=O)N1Cc2ccccc2C1`, the IC50 in assay [1] was 3.9 µM; in assay [2] it was above 30 µM.

For the compound `N[C@H](Cc1cccc(Cl)c1)C(=O)N1CCN(C(=O)c2cc(F)ccc2F)CC1`, the IC50 in assay [1], in assay [3] and in assay [2] was above 30 µM throughout.
